This is an account of results in patent publication US20080167532A1, “ASSESSING CANCER TREATMENT RESPONSIVENESS” (Mayo Foundation for Medical Education and Research, priority 2006, published 2008).

Test [1] relates to DRO cells. The test is described as follows: Affymetrix Plus 2.0 array, nucleic acid expression in DRO cells in cell culture. The settings on record: 10 nM single dose. Type of test: cell-based, human. As to the method:
Affymetrix Plus 2.0 arrays were used to identify nucleic acids altered between control vehicle-treated and RS5444-treated ATC cells from cell culture and tumors implanted ectopically into athymic nude mice. Cells in culture were treated with a single dose of 10 nM RS5444 for either 2, 6, or 24 hours. Animals were treated with 0.025% RS5444 after implantation of 1×10^6 DRO cells. Animals were fed a diet including 0.025% RS5444 for 35 days, and tumor volume was measured weekly. Tumor tissues were removed, RNA was isolated, and nucleic acid expression was analyzed. Examples of some nucleic acids, the expression of which was altered in both the animal derived tumors and cells in culture, are presented in Table 1. Some of the nucleic acids regulated by PPARγ in ATC cells (e.g., BMP2, MMP14, ANGPTL4, and ITGA5) are secreted polypeptides (Table 1).

The target in a further test is T1, PPARγ (Homo sapiens, UniProt P37231).
T1 sequence (P37231 1-505): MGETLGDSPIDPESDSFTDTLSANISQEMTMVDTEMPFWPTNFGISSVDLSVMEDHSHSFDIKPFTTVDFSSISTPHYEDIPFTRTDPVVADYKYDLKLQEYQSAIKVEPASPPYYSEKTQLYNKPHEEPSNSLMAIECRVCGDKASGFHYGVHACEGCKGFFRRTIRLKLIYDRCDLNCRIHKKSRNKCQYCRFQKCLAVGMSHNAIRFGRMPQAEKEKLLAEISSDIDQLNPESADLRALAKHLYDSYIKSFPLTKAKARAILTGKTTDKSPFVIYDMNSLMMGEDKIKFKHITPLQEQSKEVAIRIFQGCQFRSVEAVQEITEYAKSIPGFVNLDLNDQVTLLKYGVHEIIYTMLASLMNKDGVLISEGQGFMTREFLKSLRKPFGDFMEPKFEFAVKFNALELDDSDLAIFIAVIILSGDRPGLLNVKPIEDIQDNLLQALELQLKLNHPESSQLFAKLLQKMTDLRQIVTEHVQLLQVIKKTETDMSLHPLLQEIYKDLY
The test can be described thus: PPRE3-tk-luc reporter (dual luciferase) assay in DRO cells. Type of test: cell-based. Also on record: endogenous in cells; host or cells: DRO90-1 (DRO) human anaplastic thyroid carcinoma cells. The settings on record: DRO cells, PPRE3-tk-luc reporter, 24 hours; read-out: EC50, concentration at which 50% maximal transcriptional response occurs. As for the experimental part:
The effects of PPARγ agonists on DRO cells were investigated. […] Firefly luciferase activity was normalized to renilla […] activity (RLU) and plotted as mean values ±S.D. (FIG. 3A).
Cells were transfected with siRNA for 72 hours followed by transfected with a PPRE3-tk-luc reporter and treatment with 10 nM RS5444 for 24 hours. […] Cotransfection with renilla luciferase allowed for normalization to relative light units (RLU).
Cells were plated in 6-well culture plates at initial concentrations of 2×10^5 cells/well. After overnight incubation, cells were transfected with PPRE/luc and CMV/renilla luciferase plasmid using Lipofectamine 2000 (Invitrogen), and after 24 hours, cells were treated with PPAR-γ agonists at indicated concentrations. After 24 hours of drug treatments, cells were washed with PBS and lysed in 1× reporter lysis buffer (Roche), and luciferase activity was measured with a Dual Luciferase assay kit (Promega, Madison Wis.) with a luminometer (Veritas/Turner Biosystems). The enzyme activity was normalized for efficiency of transfection on the basis of renilla activity levels and reported as relative light units (RLU).

Test [2] concerns DRO cells. The test can be described thus: Real-time PCR of RhoB and p21 RNA in DRO cells. Type of test: cell-based, human. The settings on record: 10 nM vs DMSO, time course. As for the experimental part:
Experiments also were conducted to examine the expression of RhoB in response to treatment with a PPARγ agonist. Cells from the human ATC cell line, DRO, were treated at various time points during 48 hours with DMSO control (0.1%) or 10 nM RS5444. RhoB and p21^WAF1/CIP1 RNA levels were measured using real-time PCR. Data were normalized to DMSO untreated controls for each time point measured.
Total mRNA was isolated from cells using RNAqueous (Ambion) per the manufacturer's protocol followed by ethanol precipitation. Total RNA from normal thyroid tissue was extracted using TOTALLY RNA (Ambion) according to manufacturer's protocol followed by Chroma Spin Column 100 (BD Bioscience). Two-step quantitative reverse transcriptase-mediated real-time PCR (QPCR) was used to measure changes in mRNA levels of target genes in ATC cells. Total RNA was reverse transcribed using the High-Capacity cDNA Archive kit (Applied Biosystems) per the manufacturer's instructions. […] Forty amplification cycles were performed on the Applied Biosystems Prism 7900 sequence detector, with cycle threshold (Ct) values calculated using the Sequence Detection System software (SDS 2.2.2. Applied Biosystems) normalized against 18S rRNA levels. Fold change values either between treated (RS5444) and control samples were calculated using the ΔΔCt method (Livak and Schmittgen, Methods, 25:402-408 (2001)).
A general note: Real-time PCR tracks product formation cycle by cycle.

Entries after “also recorded” stand apart in the source; their conditions may differ.

As for `Cc1cc(Oc2ccc3nc(COc4ccc(CC5SC(=O)NC5=O)cc4)n(C)c3c2)cc(C)c1N` (stereo not drawn) [RS5444], the “Fold change in vitro, ADRB1” value is −3.3 fold in the test on DRO cells [1] (ADRB1, 2 h) and −2.2 fold in the test with DRO cells [1] (ADRB1, 24 h). For the same compound, the “Fold change in vitro, ANGPTL4” value was determined as 5.3 fold with DRO cells [1] (ANGPTL4, 2 h); 4.9 fold in the test on DRO cells [1] (ANGPTL4, 6 h); 8.4 fold with DRO cells [1] (ANGPTL4, 24 h). For the same compound, in the test with DRO cells [1] (BMP2, 24 h), the “Fold change in vitro, BMP2” value amounted to 2.5 fold. Further, the “Fold change in vitro, HR” value with DRO cells [1] (2 h) amounted to 2 fold; in the test with DRO cells [1] (24 h), 2.3 fold. The “Fold change in vitro, IL1B” value with DRO cells [1] (IL1B, 24 h) is reported as 14.2 fold. Besides, in the test with DRO cells [1] (ITGA5, 24 h), the “Fold change in vitro, ITGA5” value was 2.2 fold. Also, the “Fold change in vitro, LMAN1” value in the test on DRO cells [1] (LMAN1, 6 h) was −2 fold. Moreover, the “Fold change in vitro, MMP14” value in the test with DRO cells [1] (MMP14, 2 h) was found to be 5.4 fold; with DRO cells [1] (MMP14, 24 h) it was 16.9 fold. The results for the “Fold change in vitro, RhoB” value with DRO cells [1] (2 h), with DRO cells [1] (6 h) and in the test on DRO cells [1] (24 h) were 3.4 fold, 4.1 fold and 2.8 fold, respectively. The EC50 at PPARγ was ~1 nM. For the same compound, the “RhoB mRNA levels (real-time PCR)” value in the test with DRO cells [2] is “RhoB mRNA induction as early as 2 hours; also recorded: significantly elevated at 12 hours through 48 hours”.
